In US10160747B2, “Compounds and methods for kinase modulation, and indications therefor” (Plexxikon Inc., priority 2016, dated 2018):

How the values were obtained:
FLT3-D835Y = molecular target: T1, FLT3-D835Y (Homo sapiens, UniProt P36888, D835Y); experiment: FLT3-D835Y recombinant enzyme kinase assay (AlphaScreen); assay type: biochemical; conditions: 8 pt, GMean
T1 construct: purchased Invitrogen PV3967
T1 sequence (P36888 27-993 D835Y): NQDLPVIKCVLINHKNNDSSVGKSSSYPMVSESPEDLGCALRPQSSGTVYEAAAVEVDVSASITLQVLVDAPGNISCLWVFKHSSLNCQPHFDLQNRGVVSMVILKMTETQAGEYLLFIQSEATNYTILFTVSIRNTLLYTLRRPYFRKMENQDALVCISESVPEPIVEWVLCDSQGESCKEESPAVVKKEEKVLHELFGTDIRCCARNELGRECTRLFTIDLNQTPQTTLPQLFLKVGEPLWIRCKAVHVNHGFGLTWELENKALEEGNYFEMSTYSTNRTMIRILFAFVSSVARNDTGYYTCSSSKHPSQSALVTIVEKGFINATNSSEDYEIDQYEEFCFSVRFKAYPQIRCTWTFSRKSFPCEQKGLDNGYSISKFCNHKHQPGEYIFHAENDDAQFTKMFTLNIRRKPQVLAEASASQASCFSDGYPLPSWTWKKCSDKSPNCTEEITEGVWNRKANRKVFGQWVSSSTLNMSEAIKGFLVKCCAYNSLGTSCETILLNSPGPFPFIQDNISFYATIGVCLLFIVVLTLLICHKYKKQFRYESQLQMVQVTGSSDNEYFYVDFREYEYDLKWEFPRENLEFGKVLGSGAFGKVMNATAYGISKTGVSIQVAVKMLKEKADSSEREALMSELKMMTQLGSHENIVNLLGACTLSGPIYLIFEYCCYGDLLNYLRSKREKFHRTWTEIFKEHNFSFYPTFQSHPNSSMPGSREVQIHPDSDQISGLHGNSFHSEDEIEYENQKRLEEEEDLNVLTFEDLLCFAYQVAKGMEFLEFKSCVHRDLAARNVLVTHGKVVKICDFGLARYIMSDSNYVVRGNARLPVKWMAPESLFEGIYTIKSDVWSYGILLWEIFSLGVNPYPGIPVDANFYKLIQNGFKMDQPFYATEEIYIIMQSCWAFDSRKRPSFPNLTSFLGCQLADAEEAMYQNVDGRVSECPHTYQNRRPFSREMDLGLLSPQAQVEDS
Procedure, shortened: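 Kinase activity of recombinant FLT3-ITD, FLT3-D835Y and c-KIT was followed via phosphotyrosine formation on a 30 nM biotin-peptide substrate, captured on streptavidin donor and anti-phosphotyrosine acceptor AlphaScreen beads. ATP was set at 10 μM for FLT3 and 100 μM for c-KIT.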

[1] = system: MOLM-14 D835Y (endogenous FLT3 ITD and transfected FLT3 D835Y); experiment: MOLM-14 D835Y cell proliferation assay (CellTiter-Glo); assay type: cell-based; conditions: Homo sapiens, MOLM-14, 72 h; 3 d growth, GMean
Procedure, shortened: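 MOLM-14 derivatives carrying D835Y or F691L, selected under escalating AC220, were seeded at 1×10^4 cells/well and exposed to an 8-point 1:3 compound series (1 to 0.00046 μM, 0.2% DMSO final) for three days at 37° C., 5% CO2. CellTiter-Glo luminescence (ATP content) versus concentration gave IC50.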

Question: With `CCn1cc(Nc2ncc(-c3ccc(CC(=O)Nc4cc(C(F)(F)F)ccn4)cc3)cn2)cn1` [Compound P-0250, 2-[4-[2-[(1-ethylpyrazol-4-yl)amino]pyrimidin-5-yl]phenyl]-N-[4-(trifluoromethyl)-2-pyridyl]acetamide] as the molecule, how does the IC50 (FLT3-D835Y) read?
Answer: 0.0001 to 10 µM

Question: And the IC50 [1]?
Answer: 0.0001 to 10 µM

Question: `CCn1cc(Nc2ncc(-c3ccc(CC(=O)Nc4ccc(C(F)(F)F)cn4)cc3)cn2)cn1` [Compound P-0251, 2-[4-[2-[(1-ethylpyrazol-4-yl)amino]pyrimidin-5-yl]phenyl]-N-[5-(trifluoromethyl)-2-pyridyl]acetamide] was tested. Which IC50 (FLT3-D835Y) did it give?
Answer: 0.0001 to 10 µM

Question: What about the IC50 [1] of the same molecule?
Answer: 0.0001 to 10 µM

Question: How did the IC50 (FLT3-D835Y) turn out when `CCn1cc(Nc2ncc(-c3ccc(CC(=O)Nc4ccc(C(F)(F)F)nc4)cc3)cn2)cn1` [Compound P-0252, 2-[4-[2-[(1-ethylpyrazol-4-yl)amino]pyrimidin-5-yl]phenyl]-N-[6-(trifluoromethyl)-3-pyridyl]acetamide] was run?
Answer: 0.0001 to 10 µM

Question: And the IC50 [1]?
Answer: 0.0001 to 10 µM

Question: Which IC50 (FLT3-D835Y) does the source give for `CCn1cc(Nc2ncc(-c3ccc(CC(=O)Nc4cnc(OC)c(C(F)(F)F)c4)cc3)cn2)cn1` [Compound P-0253, 2-[4-[2-[(1-ethylpyrazol-4-yl)amino]pyrimidin-5-yl]phenyl]-N-[6-methoxy-5-(trifluoromethyl)-3-pyridyl]acetamide] here?
Answer: 0.0001 to 10 µM

Question: And the IC50 [1]?
Answer: 0.0001 to 10 µM

Question: Which results are given for `CCn1cc(Nc2ncc(-c3ccc(CC(=O)Nc4cnc(C)c(C(F)(F)F)c4)cc3)cn2)cn1` [Compound P-0254, 2-[4-[2-[(1-ethylpyrazol-4-yl)amino]pyrimidin-5-yl]phenyl]-N-[6-methyl-5-(trifluoromethyl)-3-pyridyl]acetamide]?
Answer: IC50 (FLT3-D835Y): 0.0001 to 10 µM; IC50 [1]: 0.0001 to 10 µM

Question: Which results are given for `CCn1cc(Nc2ncc(-c3ccc(CC(=O)Nc4cc(C(F)(F)F)ccn4)c(F)c3)cn2)cn1` [Compound P-0255, 2-[4-[2-[(1-ethylpyrazol-4-yl)amino]pyrimidin-5-yl]-2-fluoro-phenyl]-N-[4-(trifluoromethyl)-2-pyridyl]acetamide]?
Answer: IC50 (FLT3-D835Y): 0.0001 to 10 µM; IC50 [1]: 0.0001 to 10 µM

Question: For `CCn1cc(Nc2ncc(-c3ccc(CC(=O)Nc4ccc(C(F)(F)F)cn4)c(F)c3)cn2)cn1` [Compound P-0256, 2-[4-[2-[(1-ethylpyrazol-4-yl)amino]pyrimidin-5-yl]-2-fluoro-phenyl]-N-[5-(trifluoromethyl)-2-pyridyl]acetamide], which IC50 (FLT3-D835Y) is on record?
Answer: 0.0001 to 10 µM

Question: What about the IC50 [1] of the same molecule?
Answer: 0.0001 to 10 µM

Question: With `CCn1cc(Nc2ncc(-c3ccc(CC(=O)Nc4ccc(C(F)(F)F)nc4)c(F)c3)cn2)cn1` [Compound P-0257, 2-[4-[2-[(1-ethylpyrazol-4-yl)amino]pyrimidin-5-yl]-2-fluoro-phenyl]-N-[6-(trifluoromethyl)-3-pyridyl]acetamide] as the molecule, how does the IC50 (FLT3-D835Y) read?
Answer: 0.0001 to 10 µM

Question: And the IC50 [1]?
Answer: 0.0001 to 10 µM

Question: For `CCn1cc(Nc2ncc(-c3ccc(CC(=O)Nc4cncc(C(F)(F)F)c4)c(F)c3)cn2)cn1` [Compound P-0258, 2-[4-[2-[(1-ethylpyrazol-4-yl)amino]pyrimidin-5-yl]-2-fluoro-phenyl]-N-[5-(trifluoromethyl)-3-pyridyl]acetamide], which IC50 (FLT3-D835Y) is on record?
Answer: 0.0001 to 10 µM

Question: What about the IC50 [1] of the same molecule?
Answer: 0.0001 to 10 µM

Question: Which IC50 (FLT3-D835Y) does the source give for `CCn1cc(Nc2ncc(-c3ccc(CC(=O)Nc4cnc(OC)c(C(F)(F)F)c4)c(F)c3)cn2)cn1` [Compound P-0259, 2-[4-[2-[(1-ethylpyrazol-4-yl)amino]pyrimidin-5-yl]-2-fluoro-phenyl]-N-[6-methoxy-5-(trifluoromethyl)-3-pyridyl]acetamide] here?
Answer: 0.0001 to 10 µM

Question: And the IC50 [1]?
Answer: 0.0001 to 10 µM

Question: Which IC50 (FLT3-D835Y) does the source give for `CCn1cc(Nc2ncc(-c3ccc(CC(=O)Nc4cnc(Cl)c(C(F)(F)F)c4)c(F)c3)cn2)cn1` [Compound P-0260, N-[6-chloro-5-(trifluoromethyl)-3-pyridyl]-2-[4-[2-[(1-ethylpyrazol-4-yl)amino]pyrimidin-5-yl]-2-fluoro-phenyl]acetamide] here?
Answer: 0.0001 to 10 µM

Question: And the IC50 [1]?
Answer: 0.0001 to 10 µM

Question: How did the IC50 (FLT3-D835Y) turn out when `CCn1cc(Nc2ncc(-c3ccc(CC(=O)Nc4cnc(C)c(C(F)(F)F)c4)c(F)c3)cn2)cn1` [Compound P-0261, 2-[4-[2-[(1-ethylpyrazol-4-yl)amino]pyrimidin-5-yl]-2-fluoro-phenyl]-N-[6-methyl-5-(trifluoromethyl)-3-pyridyl]acetamide] was run?
Answer: 0.0001 to 10 µM

Question: And the IC50 [1]?
Answer: 0.0001 to 10 µM
